Earlier results, collected in patent publication US9579288B2, “Tesofensine and beta blocker combination formulations” (Saniona A/S, priority 2015, dated 2017).

Assays:
[1] = obese patients, long-term treatment, corrected for placebo and diet effects
DIO rats = conditions: rat model of diet-induced obesity (DIO)

Question: For `CCOC[C@@H]1[C@@H](c2ccc(Cl)c(Cl)c2)C[C@@H]2CC[C@H]1N2C` [Tesofensine, (1R,2R,3S,5S)-3-(3,4-dichlorophenyl)-2-(ethoxymethyl)-8-methyl-8-azabicyclo[3.2.1]octane], which weight loss [1] is on record?
Answer: about 10%

Question: What about the body weight (DIO rats) of the same compound?
Answer: robust and sustained weight loss
